Test results reported in patent US5453444A, “Method to mitigate or eliminate weight loss” (Otsuka Pharmaceutical Co., Ltd., priority 1994, dated 1995).
“And” between values parts separate entries of the source, which are not always exact repeats. Equal values may be shown once. “Also recorded” adds a separate entry of the source. Where a name gives a salt, the structure may show the parent alone.

Assays:
[1] = tested on: C-26.IVX cells derived from the colon adenocarcinoma; test: Suramin blocks C-26 mediated cachexia (Example 1); type: in vivo, mice; details: 200 mg/kg I.P. d7, 13
Experimental: Eleven male mice (CD)2F1 obtained from Charles Rivers Laboratories were weighed and then were inoculated with 0.5×10^6 C-26.IVX cells derived from the colon adenocarcinoma (by the procedure described in Strassmann et al., J. Clin. Invest., 89, pp. 1681-84 (May 1992) which is incorporated herein by reference). The day of inoculation was identified as day 0 (d0). On days 7 and 13, five of these mice each received intraperitoneally 0.5 ml of PBS (phosphate buffered saline) and the other six mice each received intraperitoneally 200 mg/kg body weight of suramin diluted in 0.5 ml PBS. On day 19, all the mice were sacrificed and the final total weight, the host weight, the tumor weight, epididymal fat, and dry weight were measured.

[2] = tested on: C-26 cachexia; test: Time course of C-26 mediated weight loss and tumor volume (Example 2); type: in vivo, mice; details: 100 mg/kg intraperitoneally days 7 and 12
Experimental: In subsequent experiments, eight mice obtained from the same source as above were injected with 0.5 ml PBS intraperitoneally and eight other mice from the same source as above were injected with 100 mg/kg body weight of suramin intraperitoneally. The injections were given on days 7 and 12. The weight of the two groups was measured several times a week.

[3] = tested on: C-26 cachexia; test: Dose dependence of C-26 cachexia inhibition (Example 3); type: in vivo, mice; details: increasing amounts intraperitoneally; day 17; FIG. 3
Experimental: Mice were obtained and injected with C-26 cells as set forth above for Example 1, and then were put into four groups of five mice each. The mice were injected intraperitoneally with increasing amounts of suramin as indicated in FIG. 3 except for the control mice. On day 17, the total weight of each group was compared to a control group of five mice which had been injected with 0.5 ml PBS intraperitoneally.

[4] = tested on: turpentine-induced wasting; test: Turpentine-induced wasting (Example 4); type: in vivo, mice; details: 100 mg/kg intraperitoneally day -3, 0.1 ml turpentine i.m. day 0, FIG. 4
Experimental: (See Gershenwald et al., "Interleukin 1 receptor blockade attenuates the host inflammatory response" Proc. Natl. Acad. Sci., 87 4966-70, (July, 1990) for a description of the turpentine-induced wasting procedure). In this experiment, three days before day 0 (day -3), five male (CD)2F1 mice, obtained from Charles Rivers Laboratories, each received intraperitoneally 0.5 ml of PBS. Five other mice obtained from the same source each received intraperitoneally 100 mg/kg body weight suramin diluted with 0.5 ml of PBS.

[5] = tested on: IL-6; test: IL-6 dependent proliferation of B-9 cells (3H-thymidine incorporation); type: cell-based; details: for cpm of 3H-thymidine incorporation, B-9 cells: Table 5; for proliferation of B-9 cells in response to IL-6: result in words; for cpm of 3H-thymidine, B-9 cells: Table 3
Experimental: A standard proliferation assay, Strassmann et al., J. Immunol., 147:1279-1285 (1991), was conducted using 96 well plates The medium used was RPMI with 10% fetal calf serum B-9 cells were added and were cultured for 3 days. The extent of proliferation of B-9 cells was determined by the incorporation of radioactive thymidine as described in Strassmann et al., J. Clin. Invest., 89, pp. 1681-84 (May 1992). […] (See Strassmann et al., J. Clin. Invest., 89, pp. 1681-84 (May 1992), incorporated herein by reference.)
The same procedures set forth in Example 5 was followed except that a different sulfate-containing compound, Pentosan polysulfate, was used.
The same procedure set forth in Example 5 was followed except in this example, Dextran sulfate and Dextran, were used instead of Suramin.

[6] = tested on: IL-6 receptor; test: Radioreceptor assay: binding of 125I-IL-6 to U266 cells; set-up: species or system human; details: for binding of radioactive IL-6 to U266 cells: 90 minutes at 4° C., increasing amounts of compound
Experimental: This experiment analyzed whether suramin inhibits IL-6 bioactivity by interfering with binding to the IL-6 receptor. Into eighteen test tubes was placed U266 indicator cells (obtained from ATCC), a binding buffer, made up of RPMI medium, 0.1 mg BSA and […] Hepes, and 100,000 cpm (0.8 ng) of ^125 I-IL-6. The tubes were divided into six groups of three tubes each and received suramin as follows: group 1 had 300 uM suramin; group 2 had 100 uM suramin; group 3 had 30 uM suramin; group 4 had 10 uM suramin; and group 5 had no suramin, but only medium (control for maximal binding). In addition, group 6 received excess unlabeled IL-6 without suramin for use in determining the background of binding in this assay.
After 90 minutes of incubation at 4° C. and the centrifugation of cells on oil (a standard radioreceptor assay) Strassmann, J. Immunol., 147:1279-1289 (1991), the amount of radioactivity bound to the cells was determined. […] Also, the addition of increasing amounts of suramin prevented the binding of radioactive IL-6 to U266 human myeloma indicator cells in vitro as reflected in the results set forth in FIG. 6.
The same procedure set forth in Example 6 was followed, except that Pentosan polysulfate was used instead of Suramin.

[7] = tested on: 125I-IL-6; test: 125I-IL-6 sequestration in vivo (liver, kidney, spleen radioactivity); set-up: species or system mice; details: for Kidney radioactivity / Liver radioactivity / Spleen radioactivity: 5 mg/mouse, mean ± 0.5 range of 2 mice
Experimental: The ability to prevent binding of IL-6 in vivo was analyzed as follows. Eight mice received 5.0 mg/mouse of suramin intravenously and eight other mice received 0.2 ml PBS/mouse intravenously 0.5 hour. Thereafter, all sixteen of the mice received an injection of 300,000 cpm (2.4 ng) of ^125 I-IL-6. Four mice from each group were sacrificed 30 minutes after receiving the ^125 I-IL-6 and the remaining four mice from each group were sacrificed 60 minutes after receiving the ^125 I-IL-6. The liver, kidney, and spleen were removed and measured for radioactivity (cpm).

[8] = tested on: cachexia-inducing action of CF; details: Silva et al., Infection and Immunity 1988; cited from earlier work
[9] = 5.0 mg/mouse intravenously 0.5 hour before 125I-IL-6

Cc1ccc(C(=O)Nc2ccc(S(=O)(=O)O)c3cc(S(=O)(=O)O)cc(S(=O)(=O)O)c23)cc1NC(=O)c1cccc(NC(=O)Nc2cccc(C(=O)Nc3cc(C(=O)Nc4ccc(S(=O)(=O)O)c5cc(S(=O)(=O)O)cc(S(=O)(=O)O)c45)ccc3C)c2)c1 [Suramin, 8-8'-[Carbonylbis[imino-3,1-phenylenecarbonylimino(4-methyl-3,1-phenylene)carbonylimino]]bis-1,3,5-naphthalenetrisulfonic acid hexasodium salt]
% weight loss ([1]; d19, individual mouse): 5.3% and 17.6% and 10.5% and 15.4% and 18.6% and 5.1% | Dry wt ([1]; d19, individual mouse): 7.8 g and 6.5 g and 6.6 g and 6.4 g | Final total wt. ([1]; d19, individual mouse): 25.9 g and 25.2 g and 26.2 g and 25.5 g and 25.4 g and 27.4 g | Host's wt. ([1]; d19, individual mouse): 25.0 g and 23.3 g and 24.2 g and 23.5 g and 23.1 g and 25.8 g | IL-6 ([1]; d19, individual mouse): 292 U/ml and 360 U/ml and 310 U/ml and 535 U/ml and 477 U/ml and 328 U/ml | Serum Glucose ([1]; d19, individual mouse): 128 mg/dL and 114 mg/dL and 100 mg/dL and 110 mg/dL and 109 mg/dL and 116 mg/dL | Tumor wt ([1]; d19, individual mouse): 0.93 g and 1.98 g and 2.08 g and 1.96 g and 2.36 g and 1.64 g | % weight loss ([1]; d19, mean ±SD of six mice): 12.0% | Dry wt ([1]; d19, mean ±SD of six mice): 6.7 ± 0.5 g | Host's wt. ([1]; d19, mean ±SD of six mice): 24.2 g | IL-6 ([1]; d19, mean ±SD of six mice): 384 U/ml | Serum Glucose ([1]; d19, mean ±SD of six mice): 113 ± 9 mg/dL | Tumor wt ([1]; d19, mean ±SD of six mice): 1.82 g | % weight loss ([1]; d19, mean ±SD of six mice, listed as suramin): 12.0±6.0% | Final total wt. ([1]; sacrificed d19, mean ±SD of six mice): 26.9 ± 0.8 g | C-26 mediated weight loss over time ([2]; FIG. 1): inhibited C-26 mediated weight loss in a significant time dependent manner; also recorded: time dependent inhibition of C-26 cachexia | tumor (C-26) growth in vivo (tumor volume) ([2]; FIG. 2): no significant effect on the tumor (C-26) growth in-vivo except on day 19; also recorded: lack of effect | percentage of weight loss (wasting) versus dose [3]: inhibited wasting in a dose dependent manner; also recorded: dose dependent inhibition of C-26 cachexia | turpentine-induced weight loss [4]: exhibited no such weight loss; also recorded: prevention of turpentine-induced wasting | bioactivity of IL-6 (proliferation of B-9 cells) ([5]; preincubated with IL-6, 3 days culture, FIG. 5): inhibits the bioactivity of IL-6; also recorded: inhibition of bioactivity of IL-6 | binding of radioactive IL-6 to U266 cells [6]: prevents binding of the IL-6 to the U266 cells in a dose dependent manner; also recorded: prevention of the binding of IL-6 to human myeloma cells | less radioactivity measured in the liver versus PBS [7, 9]: approximately 50% | radioactive IL-6 present in the kidney [7, 9]: increase of radioactive IL-6 present in the kidney | Kidney radioactivity ([7]; Expt. 1, 30 minutes): 70151 ± 125 cpm | Liver radioactivity ([7]; Expt. 1, 30 minutes): 8385 ± 1525 cpm/gm | Spleen radioactivity ([7]; Expt. 1, 30 minutes): 1347 ± 295 cpm | Kidney radioactivity ([7]; Expt. 1, 60 minutes): 36595 ± 1760 cpm | Liver radioactivity ([7]; Expt. 1, 60 minutes): 4275 ± 91 cpm/gm | Spleen radioactivity ([7]; Expt. 1, 60 minutes): 630 ± 6 cpm | Kidney radioactivity ([7]; Expt. 2, 30 minutes): 57287 ± 2849 cpm | Liver radioactivity ([7]; Expt. 2, 30 minutes): 9277 ± 235 cpm/gm | Spleen radioactivity ([7]; Expt. 2, 30 minutes): 1306 ± 4 cpm | Kidney radioactivity ([7]; Expt. 2, 60 minutes): 38254 ± 466 cpm | Liver radioactivity ([7]; Expt. 2, 60 minutes): 5512 ± 379 cpm/gm | Spleen radioactivity ([7]; Expt. 2, 60 minutes): 631 ± 25 cpm

Dextran
cpm of 3H-thymidine incorporation, B-9 cells ([5]; compound 30 μM, IL-6 3 pg/ml): 24007 cpm | cpm of 3H-thymidine incorporation, B-9 cells ([5]; compound 30 μM, IL-6 10 pg/ml): 143003 cpm | cpm of 3H-thymidine incorporation, B-9 cells ([5]; compound 30 μM, IL-6 30 pg/ml): 231856 cpm | cpm of 3H-thymidine incorporation, B-9 cells ([5]; compound 100 μM, IL-6 3 pg/ml): 29577 cpm | cpm of 3H-thymidine incorporation, B-9 cells ([5]; compound 100 μM, IL-6 10 pg/ml): 136191 cpm | cpm of 3H-thymidine incorporation, B-9 cells ([5]; compound 100 μM, IL-6 30 pg/ml): 230321 cpm | cpm of 3H-thymidine incorporation, B-9 cells ([5]; compound 300 μM, IL-6 3 pg/ml): 27015 cpm | cpm of 3H-thymidine incorporation, B-9 cells ([5]; compound 300 μM, IL-6 10 pg/ml): 140903 cpm | cpm of 3H-thymidine incorporation, B-9 cells ([5]; compound 300 μM, IL-6 30 pg/ml): 245701 cpm | proliferation of B-9 cells in response to IL-6 [5]: did not prevent the proliferation of B-9 cells in response to IL-6

C[C@@H]1C[C@H]2[C@@H]3CCC4=CC(=O)C=C[C@]4(C)[C@@]3(F)[C@@H](O)C[C@]2(C)[C@@]1(O)C(=O)CO [Dexamethasone]
cachexia-inducing action of CF [8]: partially inhibit the cachexia-inducing action of CF

Pentosan polysulfate
cpm of 3H-thymidine, B-9 cells ([5]; compound 300 μM, IL-6 added 1 pg/ml): 1567 cpm | cpm of 3H-thymidine, B-9 cells ([5]; compound 300 μM, IL-6 added 3 pg/ml): 2648 cpm | cpm of 3H-thymidine, B-9 cells ([5]; compound 300 μM, IL-6 added 10 pg/ml): 11456 cpm | cpm of 3H-thymidine, B-9 cells ([5]; compound 300 μM, IL-6 added 30 pg/ml): 60287 cpm | cpm of 3H-thymidine, B-9 cells ([5]; compound 1000 μM, IL-6 added 1 pg/ml): 795 cpm | cpm of 3H-thymidine, B-9 cells ([5]; compound 1000 μM, IL-6 added 3 pg/ml): 1062 cpm | cpm of 3H-thymidine, B-9 cells ([5]; compound 1000 μM, IL-6 added 10 pg/ml): 3586 cpm | cpm of 3H-thymidine, B-9 cells ([5]; compound 1000 μM, IL-6 added 30 pg/ml): 26727 cpm | proliferation of B-9 cells in response to IL-6 [5]: prevented the proliferation of B-9 cells | cpm 125I-IL-6 bound to U266 cells ([6]; 3 μM): 3000 cpm | cpm 125I-IL-6 bound to U266 cells ([6]; 30 μM): 2575 cpm | cpm 125I-IL-6 bound to U266 cells ([6]; 300 μM): 2003 cpm | binding of radioactive IL-6 to U266 cells [6]: inhibited the binding of radioactive IL-6 to U266 human myeloma cells

Dextran sulfate
cpm of 3H-thymidine incorporation, B-9 cells ([5]; compound 30 μM, IL-6 3 pg/ml): 7603 cpm | cpm of 3H-thymidine incorporation, B-9 cells ([5]; compound 30 μM, IL-6 10 pg/ml): 68066 cpm | cpm of 3H-thymidine incorporation, B-9 cells ([5]; compound 30 μM, IL-6 30 pg/ml): 204155 cpm | cpm of 3H-thymidine incorporation, B-9 cells ([5]; compound 100 μM, IL-6 3 pg/ml): 8075 cpm | cpm of 3H-thymidine incorporation, B-9 cells ([5]; compound 100 μM, IL-6 10 pg/ml): 31678 cpm | cpm of 3H-thymidine incorporation, B-9 cells ([5]; compound 100 μM, IL-6 30 pg/ml): 150233 cpm | cpm of 3H-thymidine incorporation, B-9 cells ([5]; compound 300 μM, IL-6 3 pg/ml): 2461 cpm | cpm of 3H-thymidine incorporation, B-9 cells ([5]; compound 300 μM, IL-6 10 pg/ml): 16573 cpm | cpm of 3H-thymidine incorporation, B-9 cells ([5]; compound 300 μM, IL-6 30 pg/ml): 112835 cpm | proliferation of B-9 cells in response to IL-6 [5]: prevented the proliferation of B-9 cells in response to IL-6

hIL-6: excess unlabeled IL-6 used for determining the background of binding in the radioreceptor assay
cpm 125I-IL-6 bound to U266 cells ([6]; 270 ng/ml unlabeled competitor (background of binding)): 1416 cpm
